Tests used:
HDAC6 enzyme = molecular target: T1, HDAC6 enzyme (Homo sapiens, UniProt Q9UBN7); assay: HDAC6 enzyme inhibitory assay (HDAC-Glo I/II Assay kit); type: biochemical; settings: 1 μM test compound; read-out: HDAC6 inhibitory rate (%) (1 μM)
T1 construct: prepared by transducing full length HDAC1 and HDAC6 genes into Sf-9 insect cells; GST; purchased SignalChem; host or cells: Sf-9 insect cells
T1 sequence (Q9UBN7 1-1215): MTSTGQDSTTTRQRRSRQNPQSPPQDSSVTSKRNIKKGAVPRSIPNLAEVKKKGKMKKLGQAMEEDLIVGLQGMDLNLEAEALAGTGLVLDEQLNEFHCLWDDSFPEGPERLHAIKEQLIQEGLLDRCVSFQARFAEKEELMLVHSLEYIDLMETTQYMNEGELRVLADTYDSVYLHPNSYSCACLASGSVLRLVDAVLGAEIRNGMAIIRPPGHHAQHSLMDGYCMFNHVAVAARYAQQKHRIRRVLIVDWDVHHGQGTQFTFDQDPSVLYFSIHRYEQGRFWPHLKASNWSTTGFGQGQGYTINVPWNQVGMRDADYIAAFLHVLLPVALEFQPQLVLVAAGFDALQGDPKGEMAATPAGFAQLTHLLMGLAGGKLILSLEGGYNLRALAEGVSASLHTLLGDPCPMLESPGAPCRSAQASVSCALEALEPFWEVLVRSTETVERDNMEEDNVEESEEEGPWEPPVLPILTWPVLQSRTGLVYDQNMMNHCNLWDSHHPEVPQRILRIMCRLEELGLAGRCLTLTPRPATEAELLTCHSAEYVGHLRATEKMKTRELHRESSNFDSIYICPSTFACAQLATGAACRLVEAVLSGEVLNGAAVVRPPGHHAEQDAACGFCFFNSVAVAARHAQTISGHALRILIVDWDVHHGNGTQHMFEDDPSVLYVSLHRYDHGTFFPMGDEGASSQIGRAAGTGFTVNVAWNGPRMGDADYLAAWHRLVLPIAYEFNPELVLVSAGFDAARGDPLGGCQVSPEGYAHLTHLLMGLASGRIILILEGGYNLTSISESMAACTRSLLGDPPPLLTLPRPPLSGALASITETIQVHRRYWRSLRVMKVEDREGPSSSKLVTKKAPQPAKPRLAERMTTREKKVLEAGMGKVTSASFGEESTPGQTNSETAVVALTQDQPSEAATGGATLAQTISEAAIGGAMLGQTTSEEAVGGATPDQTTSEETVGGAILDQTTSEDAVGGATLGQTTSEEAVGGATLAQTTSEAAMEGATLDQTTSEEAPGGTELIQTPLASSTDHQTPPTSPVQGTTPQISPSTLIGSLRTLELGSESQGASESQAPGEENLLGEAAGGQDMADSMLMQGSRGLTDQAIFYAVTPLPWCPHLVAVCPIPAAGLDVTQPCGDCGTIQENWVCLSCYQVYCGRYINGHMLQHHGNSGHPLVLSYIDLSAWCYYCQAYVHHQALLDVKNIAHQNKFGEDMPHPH
Procedure, shortened: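 Luminescence read-out: 20 min after adding HDAC-Glo substrate-developer at room temperature. Before that, compound and Sf-9-expressed, GST-purified full-length HDAC1 or HDAC6 sat together 60 min in pH 7.5 Tris buffer. Inhibition is relative to no-enzyme wells taken as 100%.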

HDAC1 enzyme = molecular target: T2, HDAC1 enzyme (Homo sapiens, UniProt Q13547); assay: HDAC1 enzyme inhibitory assay (HDAC-Glo I/II Assay kit); type: biochemical; settings: 1 μM test compound; read-out: HDAC1 inhibitory rate (%) (1 μM)
T2 construct: prepared by transducing full length HDAC1 and HDAC6 genes into Sf-9 insect cells; GST; purchased SignalChem; host or cells: Sf-9 insect cells
Procedure: HDAC1 enzyme and HDAC6 enzyme each prepared by transducing full length HDAC1 and HDAC6 genes into Sf-9 insect cells and purifying by GST affinity column were purchased from SignalChem. Using these enzymes, HDAC1 and/or HDAC6 enzyme inhibitory activities of the compound of the present invention were evaluated. Enzymes were used after preserved at −70° C. HDAC1 or HDAC6 enzyme inhibitory activity of the compound of the present invention was measured using HDAC-Glo™ I/II Assay kit (Promega) according to the following experimental method. The test compound diluted with assay buffer (24 mM Tris-HCl (pH 7.5), 1 mM MgCl2, 0.35 mM KCl, 135 mM NaCl, 0.6 mM Glutathione, 0.01% Tween-20) was added to a 384-well plate by each 2 μL. Then, HDAC1 or HDAC6 enzyme solution diluted with assay buffer was added thereto by each 4 μL, and the plate was incubated at room temperature for 60 min. After incubated, HDAC substrate-Developer solution prepared according to Promega protocol attached to the assay kit was added to the 384-well plate by each 2 μL, and the enzyme reaction was started. After reacting at room temperature for 20 min, luminescence level was measured using plate reader Envision (PerkinElmer). The inhibitory activity of each compound was calculated as a relative activity value when luminescence level in wells without enzyme is considered as 100% inhibition.

T2 sequence (Q13547 whole entry): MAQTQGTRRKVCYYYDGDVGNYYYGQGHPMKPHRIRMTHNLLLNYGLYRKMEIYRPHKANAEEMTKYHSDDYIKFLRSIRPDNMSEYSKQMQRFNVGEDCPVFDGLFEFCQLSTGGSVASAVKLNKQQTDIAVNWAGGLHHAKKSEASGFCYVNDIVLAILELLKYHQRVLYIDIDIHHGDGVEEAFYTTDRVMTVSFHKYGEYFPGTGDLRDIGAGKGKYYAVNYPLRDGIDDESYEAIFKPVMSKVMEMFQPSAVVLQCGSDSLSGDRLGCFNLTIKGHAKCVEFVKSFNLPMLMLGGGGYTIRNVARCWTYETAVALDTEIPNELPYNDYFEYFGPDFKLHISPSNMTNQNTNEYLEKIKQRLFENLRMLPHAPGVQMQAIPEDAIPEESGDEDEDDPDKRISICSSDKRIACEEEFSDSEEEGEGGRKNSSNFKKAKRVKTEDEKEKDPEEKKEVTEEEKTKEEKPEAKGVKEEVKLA

Row | Structure (SMILES) | inhibition at 1 µM (HDAC6 enzyme) [%] | inhibition at 1 µM (HDAC1 enzyme) [%]
1 | Cc1nnsc1C(=O)N1CCOC[C@@H]1CNC(=O)c1ccc(-c2noc(C(F)(F)F)n2)cn1 [Example 195, N-(((3S)-4-((4-methyl-1,2,3-thiadiazol-5-yl)carbonyl)morpholin-3-yl)methyl)-5-(5-(trifluoromethyl)-1,2,4-oxadiazol-3-yl)pyridine-2-carboxamide] | 98 | 40
2 | CC(C)(C(=O)N1CCOCC1CNC(=O)c1ccc(-c2noc(C(F)(F)F)n2)cc1)n1cccn1 (stereo in doubt) [Example 101, N-(((3S)-4-(2-methyl-2-(1H-pyrazol-1-yl)propanoyl)morpholin-3-yl)methyl)-4-(5-(trifluoromethyl)-1,2,4-oxadiazol-3-yl)benzamide] | 99 | 17
3 | O=C(NC[C@H]1COCCN1C(=O)N1CCC(CCO)CC1)c1ccc(-c2noc(C(F)(F)F)n2)cc1 [Example 279, N-(((3S)-4-((4-(2-hydroxyethyl)piperidin-1-yl)carbonyl)morpholin-3-yl)methyl)-4-(5-(trifluoromethyl)-1,2,4-oxadiazol-3-yl)benzamide] | 90 | 10
4 | CN(C(=O)C[C@H]1COCCN1C(=O)c1ccccc1)c1ccc(-c2noc(C(F)(F)F)n2)cc1 [Example 161, 2-((3S)-4-benzoylmorpholin-3-yl)-N-methyl-N-(4-(5-(trifluoromethyl)-1,2,4-oxadiazol-3-yl)phenyl)acetamide] | 48 | 6
5 | O=C(NC[C@H]1COCCN1C(=O)N1CCC(c2ccncc2)C1)c1ccc(-c2noc(C(F)(F)F)n2)cc1 (stereo partly drawn) [Example 295, N-(((3S)-4-((3-(pyridin-4-yl)pyrrolidin-1-yl)carbonyl)morpholin-3-yl)methyl)-4-(5-(trifluoromethyl)-1,2,4-oxadiazol-3-yl)benzamide] | 85 | 8
6 | Cn1nc2ccccc2c1C(=O)N1CCOC[C@@H]1CNC(=O)c1ccc(-c2noc(C(F)(F)F)n2)cc1 [Example 82, N-(((3S)-4-((2-methyl-2H-indazol-3-yl)carbonyl)morpholin-3-yl)methyl)-4-(5-(trifluoromethyl)-1,2,4-oxadiazol-3-yl)benzamide] | 101 | 60
7 | Cc1oncc1C(=O)N1CCOC[C@@H]1CNC(=O)c1ccc(-c2noc(C(F)(F)F)n2)s1 [Example 259, N-(((3S)-4-((5-methyl-1,2-oxazol-4-yl)carbonyl)morpholin-3-yl)methyl)-5-(5-(trifluoromethyl)-1,2,4-oxadiazol-3-yl)thiophene-2-carboxamide] | 100 | 25
8 | N#CC1(C(=O)N2CCOC[C@@H]2CNC(=O)c2ccc(-c3noc(C(F)(F)F)n3)cc2)CC1 [Example 55, N-(((3S)-4-((1-cyanocyclopropyl)carbonyl)morpholin-3-yl)methyl)-4-(5-(trifluoromethyl)-1,2,4-oxadiazol-3-yl)benzamide] | 96 | 17
9 | O=C(NC[C@H]1COCCN1C(=O)C1(c2ccccc2)CC1)c1ccc(-c2noc(C(F)(F)F)n2)cc1 [Example 56, N-(((3S)-4-((1-phenylcyclopropyl)carbonyl)morpholin-3-yl)methyl)-4-(5-(trifluoromethyl)-1,2,4-oxadiazol-3-yl)benzamide] | 97 | 16
10 | O=C(NC[C@H]1COCCN1C(=O)N1CCCC(F)(F)C1)c1ccc(-c2noc(C(F)(F)F)n2)cc1 [Example 307, N-(((3S)-4-((3,3-difluoropiperidin-1-yl)carbonyl)morpholin-3-yl)methyl)-4-(5-(trifluoromethyl)-1,2,4-oxadiazol-3-yl)benzamide] | 98 | 9
11 | Cn1nc2ccccc2c1C(=O)N1CCOC[C@H]1CNC(=O)c1ccc(-c2noc(C(F)(F)F)n2)cc1 [Example 157, N-(((3R)-4-((2-methyl-2H-indazol-3-yl)carbonyl)morpholin-3-yl)methyl)-4-(5-(trifluoromethyl)-1,2,4-oxadiazol-3-yl)benzamide] | 92 | 31
12 | C[C@@H]1CCCN1C(=O)N1CCOC[C@@H]1CNC(=O)c1ccc(-c2noc(C(F)(F)F)n2)cc1 [Example 289, N-(((3S)-4-(((2R)-2-methylpyrrolidin-1-yl)carbonyl)morpholin-3-yl)methyl)-4-(5-(trifluoromethyl)-1,2,4-oxadiazol-3-yl)benzamide] | 85 | 4
13 | O=C(NC[C@H]1COCCN1C(=O)C(F)(F)c1ccccc1)c1ccc(-c2noc(C(F)(F)F)n2)cn1 [Example 207, N-(((3S)-4-(difluoro(phenyl)acetyl)morpholin-3-yl)methyl)-5-(5-(trifluoromethyl)-1,2,4-oxadiazol-3-yl)pyridine-2-carboxamide] | 99 | 41

Second part, the compound after the results:

Row | inhibition at 1 µM (HDAC6 enzyme) [%] | inhibition at 1 µM (HDAC1 enzyme) [%] | Structure (SMILES)
14 | 99 | 21 | Cc1ccc(C(=O)N2CCOCC2CNC(=O)c2ccc(-c3noc(C(F)(F)F)n3)cc2)cc1 (stereo not shown) [Example 11, N-((4-(4-methylbenzoyl)morpholin-3-yl)methyl)-4-(5-(trifluoromethyl)-1,2,4-oxadiazol-3-yl)benzamide]
15 | 99 | 21 | Cc1ccccc1C(=O)N1CCOCC1CNC(=O)c1ccc(-c2noc(C(F)(F)F)n2)cc1 (stereo not shown) [Example 9, N-((4-(2-methylbenzoyl)morpholin-3-yl)methyl)-4-(5-(trifluoromethyl)-1,2,4-oxadiazol-3-yl)benzamide]
16 | 98 | 15 | CN(C(=O)N1CCOCC1CNC(=O)c1ccc(-c2noc(C(F)(F)F)n2)cc1)c1ccccc1 (stereo in doubt) [Example 98, (3S)-N-methyl-N-phenyl-3-(((4-(5-(trifluoromethyl)-1,2,4-oxadiazol-3-yl)benzoyl)amino)methyl)morpholine-4-carboxamide]
17 | 98 | 29 | Cc1cc(C#N)ccc1C(=O)N1CCOC[C@@H]1CNC(=O)c1ccc(-c2noc(C(F)(F)F)n2)cc1 [Example 87, N-(((3S)-4-(4-cyano-2-methylbenzoyl)morpholin-3-yl)methyl)-4-(5-(trifluoromethyl)-1,2,4-oxadiazol-3-yl)benzamide]
18 | 98 | 20 | O=C(NCC1COCCN1C(=O)c1cccs1)c1ccc(-c2noc(C(F)(F)F)n2)cc1 (stereo not shown) [Example 15, N-((4-(2-thienylcarbonyl)morpholin-3-yl)methyl)-4-(5-(trifluoromethyl)-1,2,4-oxadiazol-3-yl)benzamide]
19 | 98 | 9 | Cn1nc(C(=O)N2CCOCC2CNC(=O)c2ccc(-c3noc(C(F)(F)F)n3)cc2)c2ccccc21 (stereo not shown) [Example 18, N-((4-((1-methyl-1H-indazol-3-yl)carbonyl)morpholin-3-yl)methyl)-4-(5-(trifluoromethyl)-1,2,4-oxadiazol-3-yl)benzamide]
20 | 99 | 19 | O=C(NCC1COCCN1C(=O)c1ccccc1F)c1ccc(-c2noc(C(F)(F)F)n2)cc1 (stereo not shown) [Example 3]

Reference: patent US10081624B2, “Heterocyclic compound” (Takeda Pharmaceutical Company Limited, priority 2014, dated 2018)
